Experimental data published in US11993573B2, “Chromane-substituted, tetrahydroquinoline-substituted and thiochromane-substituted heteroarotinoids as anti-cancer agents” (THE BOARD OF REGENTS FOR OKLAHOMA STATE UNIVERSITY, priority 2018, dated 2024).
Where two headings read alike, the source gives them in different places.

Tests used:
[1] = tested on: 60 cancer cell lines available from the National Cancer Institute; details: SHetA2, background; cited from earlier work
[2] = tested on: human ovarian cancer cell line A2780; experiment: Growth inhibition assay (CellTiter 96 Non-Rad Cell Proliferation Assay); assay type: cell-based; details: Homo sapiens
Description: To illustrate the general activity of the compounds inhibiting growth of human […] ovarian cancer cells, selected compounds were synthesized and evaluated. The compounds were dissolved in DMSO at a concentration of 0.01 M. The human ovarian cancer cell line A2780 was plated in 96-well tissue culture dishes at a concentration of 3000 cells per well in RPMI medium supplemented with 10% fetal bovine serum and a mixture of antibiotics and antimycotics. The next day, the cultures were treated in triplicate with compound concentrations ranging from 2 μM to 8 μM increments. For compound 12, additional experiments were performed with concentrations of 10 μM and a series of two-fold dilutions to 156 nM. Control cultures were treated with DMSO solvent only. After 72 h of incubation, the […] 96® Non-Rad Cell Proliferation Assay (Promega) was used to quantify the remaining metabolically living cells. After subtracting blank values, the optical density (OD) readouts of the assay for the treated cultures were normalized with the average OD of the control cultures. For each compound, the experiment was repeated at least once, resulting in a minimum of 6 dose-response curves. For SHetA2, 24 response curves were available for statistical fitting parameters. A custom program was written in GNU Octave, a free software compatible with Matlab, to fit the dose-response curves with a four-parameter sigmoid function, extracting the IC50 and efficacy (the maximal % growth inhibition) parameters.
To illustrate the useful biological activity of these chroman-substituted and tetrahydroquinoline-substituted heteroarotinoids, the compounds were screened against human […] ovarian cancer cells.

[3] = SHetA2, background; cited from earlier work
[4] = A2780, 72 h, Table 1, chroman-containing series
[5] = A2780, 72 h, Table 1, maximal % growth inhibition, A2780, 72 h, read-out: Efficacy
[6] = A2780, 72 h, Table 2, tetrahydroquinoline-containing members
[7] = A2780, 72 h, Table 2, maximal % growth inhibition, A2780, 72 h, read-out: Efficacy

SMILES | IC50 [2, 6] | melting point | Emax [2, 7] | also measured
CC1(C)CCNc2ccc(NC(=S)Nc3ccc([N+](=O)[O-])cc3)cc21 [Compound 9b, 1-(4,4-Dimethyl-1,2,3,4-tetrahydroquinolin-6-yl)-3-(4-nitrophenyl)thiourea] | 7.1 µM | 150 to 152 °C | 17.8% | –
CN1c2ccc(NC(=S)Nc3ccc(OC(F)(F)F)cc3)cc2C(C)(C)C(O)C1(C)C (centres unmarked) [Compound 13f, 1-(3-Hydroxy-1,2,2,4,4-pentamethyl-1,2,3,4-tetrahydroquinolin-6-yl)-3-(4-(trifluoromethoxy)phenyl)thiourea] | 13.1 µM | 97 to 99 °C | 15.3% | –
CC1(C)CCOc2ccc(NC(=O)Nc3ccc(OC(F)(F)F)cc3)cc21 [Compound 5c, 1-(4,4-Dimethylchroman-6-yl)-3-(4-(trifluoromethoxy)phenyl)urea] | – | 230 to 231 °C | – | IC50 [2, 4]: 3.5 µM; Emax [2, 5]: 36%
CN1c2ccc(NC(=S)Nc3ccc(C(F)(F)F)cc3)cc2C(C)(C)C(O)C1(C)C (centres unmarked) [Compound 13d, 1-(3-Hydroxy-1,2,2,4,4-pentamethyl-1,2,3,4-tetrahydroquinolin-6-yl)-3-(4-(trifluoromethyl)phenyl)thiourea] | 7.6 µM | 105 to 107 °C | 56.1% | –

Now from value to compound, other results behind:

IC50 [2, 6] | melting point | SMILES | Emax [2, 7] | also measured
3.17 µM | – | CC1(C)CC(C)(C)c2cc(NC(=S)Nc3ccc([N+](=O)[O-])cc3)ccc2S1 [SHetA2, reference compound] | 84.3% | growth inhibition of cancer cell lines [1]: inhibits the growth of all 60 cancer cell lines; IC50 [2, 4]: 3.17 µM; Emax [2, 5]: 84.3%; IC50 ([2]; A2780, Table 3, 14 series (thiochroman), A2780): 3.17 ± 0.1 µM; Emax ([2]; A2780, Table 3, 14 series, A2780, read-out: % Efficacy): 84.3 ± 0.7%; IC50 ([2]; A2780, running text, A2780): 3 µM; birth defects in animal studies [3]: does not cause birth defects; skin irritation [3]: no skin irritation; toxicity toward normal tissues [3]: essentially no toxicity toward normal tissues
6 µM | 104 to 105 °C | CC1(C)CCNc2ccc(NC(=S)Nc3ccc(C(F)(F)F)cc3)cc21 [Compound 9c, 1-(4,4-Dimethyl-1,2,3,4-tetrahydroquinolin-6-yl)-3-(4-(trifluoromethyl)phenyl)thiourea] | 42% | –
5.4 µM | 83 to 85 °C | CN1c2ccc(NC(=S)Nc3ccc(OC(F)(F)F)cc3)cc2C(C)(C)C(=O)C1(C)C [Compound 11f, 1-(1,2,2,4,4-Pentamethyl-3-oxo-1,2,3,4-tetrahydroquinolin-6-yl)-3-(4-(trifluoromethoxy)phenyl)thiourea] | 76% | –
2.4 µM | 191 to 192 °C | CN1c2ccc(NC(=O)Nc3ccc(OC(F)(F)F)cc3)cc2C(C)(C)C(=O)C1(C)C [Compound 11e, 1-(1,2,2,4,4-Pentamethyl-3-oxo-1,2,3,4-tetrahydroquinolin-6-yl)-3-(4-(trifluoromethoxy)phenyl)urea] | 91.3% | –
